Read-outs that look alike come from different tables or passages of the source.
Assays:
mut-KRas NSCLC lines [1] = test: Proliferation assay 2D, mut-KRas NSCLC lines; type: cell-based; settings: for In vitro IC50 against mut-KRas NSCLC 2D ave: mean of 12 mut-KRas NSCLC lines; for IC50: range across mut-Kras cell lines, read-out: In vitro IC50 against mut-KRas NSCLC 2D range
Description: A panel of 30 cell lines and an extensive characterization were obtained from Dr. John Minna (UTSW). All cell lines were cultured in RPMI 1640 with 10% FBS. Cells were treated with concentrations of agents at concentrations 0.01 to 50 μM and evaluated as described above. IC50's were determined using Excelfit.

mut-KRas NSCLC lines [2] = test: Proliferation assay 3D, mut-KRas NSCLC lines; type: cell-based; settings: for In vitro IC50 against mut-KRas NSCLC 3D ave: mean of 6 mut-KRas NSCLC lines; for IC50: range across mut-Kras cell lines, read-out: In vitro IC50 against mut-KRas NSCLC 3D range
Description: The plates were optimized for the best cell density and found to be 20,000 cells per mL. The lid was removed from a 96-well Greiner plate and turned upside down. 20 μL of the 20,000 cells per mL suspension was then added directly into the middle of the circles found on the lid of the 96-well plate forming a small drop. 100 μL of media was added into the corresponding wells, used to maintain the […] of the drops, and the lid was flipped back over carefully placing it back onto the plate without disturbing the drop. The plate was then placed into the incubator for 3 days to allow the cells to migrate to the bottom of the drop due to gravity. After 3 days, […] of media was added to the corresponding wells a SCIVAX 96-well plate. The lid from the Greiner 96-well plate was removed and placed onto the SCIVAX plate allowing the drop to come in contact with the media and placed back into the incubator. After one hour, 200 μL of media was removed from the corresponding wells carefully without disturbing the spheroid and imaged.

Pharmacokinetics (PK) = type: in vivo; parameters: AUC: concentration or dose not given beside the values; settings: for half-life: read-out: PK T1/2 (converted)
PH-domain of CNKSR1 = target: T1, PH-domain of CNKSR1 (Homo sapiens, UniProt Q969H4); test: Surface plasmon resonance binding to CNK PH-domain
T1 construct: The PH-domain His-fusion proteins (CNK1 and AKT1) were expressed and immobilized on a NTA chip; made in house
T1 sequence (Q969H4 403-502 limits assumed): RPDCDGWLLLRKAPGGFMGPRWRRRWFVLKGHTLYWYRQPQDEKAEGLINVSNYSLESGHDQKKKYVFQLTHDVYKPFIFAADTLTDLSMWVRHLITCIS
Source text: The PH-domain His-fusion proteins (CNK1 and AKT1) were expressed and immobilized on a NTA chip to a level of 10,000 response units or less.
Additionally, ligand-based approaches provided an alternative to structure based drug discovery.

mut-KRAS cells = test: Proliferation assay, mut-KRAS cell lines; type: cell-based; settings: read-out: Ave IC50 mut-KRAS
Description: (§1) These cells were cultured in McCoys media with 10% FBS to 80% confluency. […] Cells were incubated for 72 hours with the drugs, and then viability was assessed using an MTS viability assay. Cells were exposed to MTS reagent (Promega) dissolved in PBS (Hyclone) at a concentration of 200 μL reagent/mL media for 2 hours. Absorbance was then read at 490 nm, and viability was expressed as a percentage normalized between the negative control (no cells plated) and the condition of cells with no drug added (100% viability) normalized as the upper limit of viability. A panel of 30 cell lines and an extensive characterization were obtained from Dr. John Minna (UTSW). All cell lines were cultured in RPMI 1640 with 10% FBS. […] IC50's were determined using Excelfit.

wt-KRAS cells = test: Proliferation assay, wt-KRAS cell lines; type: cell-based; settings: read-out: Ave IC50 wt-KRAS
Description: as §1

CNK1 = target: T2, CNK1 (Homo sapiens, UniProt Q969H4); test: SPR competition, CNK1 binding to PIP3; settings: read-out: SPR Competition Percent inhibition of CNK1 binding to PIP3 at 50 μM, X = none
T2 construct: The PH-domain His-fusion proteins (CNK1 and AKT1) were expressed and immobilized on a NTA chip; made in house
T2 sequence (Q969H4 403-502 limits assumed): T1 sequence (Q969H4 403-502 limits assumed)

AKT1 PH-domain = target: T3, AKT1 PH-domain (Homo sapiens, UniProt P31749); test: Surface plasmon resonance binding to AKT PH-domain; settings: SPR; ND = no binding determined
T3 construct: The PH-domain His-fusion proteins (CNK1 and AKT1) were expressed and immobilized on a NTA chip; made in house
T3 sequence (P31749 5-108 limits assumed): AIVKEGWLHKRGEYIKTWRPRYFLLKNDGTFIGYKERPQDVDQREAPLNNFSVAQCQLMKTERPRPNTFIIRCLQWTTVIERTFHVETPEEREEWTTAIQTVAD
Description: All interaction analyses were done with a Biacore T200 Control Software v3.2, and BIAevaluation v2.0 analysis software (Biacore). The PH-domain His-fusion proteins (CNK1 and AKT1) were expressed and immobilized on a NTA chip to a level of 10,000 response units or less. Small molecule analytes at concentrations ranging from 50 μM to 0.010 μM were injected at a high flow rate (30 μL/min). DMSO concentrations in all samples and running buffer were 1-5% (v/v) […]
A commercially available docking package GLIDE was chosen as the docking algorithm used to select and optimize compounds, providing a GlideScore as a rough estimate of binding affinity that was used to rank and select the best compounds. Additionally, ligand-based approaches provided an alternative to structure based drug discovery. Ligand-based virtual screening methodologies can take into account shape and electrostatics and the pharmacophoric features (acceptor, donor, hydrophobic, aromatic, etc.) of its functional groups. Inositol tetraphosphate (IP4) binding to the PH-domain of CNKSR1 provided a good starting point for shape screening. Both structure-based and ligand-based approaches were used to find novel compounds and to refine and improve lead compounds (Tables 2, 3 and 4). SPR interaction analyses for the compounds were performed with a Biacore T200, using BiacoreT200 Control Software v3.2 and BIAevaluation v2.0analysis software (Biacore).

[3] = Summary table for CNKSR1 inhibitors, read-out: SPR Kd

Compound	In vitro IC50 against mut-KRas NSCLC 2D ave (mut-KRas NSCLC lines [1])	IC50 (mut-KRas NSCLC lines [1])	IC50 (mut-KRas NSCLC lines [2])	half-life (Pharmacokinetics (PK); in vivo)	IC50 (mut-KRAS cells)	IC50 (wt-KRAS cells)	AUC (Pharmacokinetics (PK); in vivo)	other results
CCOC(=O)/C=C/c1c(NS(=O)(=O)c2cccs2)cc2c(c1OC)OCO2 [Compound 151, ethyl 3-[4-methoxy-6-(thiophene-2-sulfonamido)-2H-1,3-benzodioxol-5-yl]prop-2-enoate]	18 µM	0.5 to 100 µM	0.025 to 2.7 µM	0.5 h				In vitro IC50 against mut-KRas NSCLC 3D ave (mut-KRas NSCLC lines [2]): 0.69 µM; PK metabolism (remark in place of AUC) (Pharmacokinetics (PK); AUC NA): rapid
CN1CC(=O)N(/C=C/c2cc(NS(=O)(=O)c3cccs3)c3c(c2O)OCO3)C1=O [Compound 91, (E)-N-(7-hydroxy-6-(2-(3-methyl-2,5-dioxoimidazolidin-1-yl)vinyl)benzo[d][1,3]dioxol-4-yl)thiophene-2-sulfonamide]	23 µM	6 to 35 µM		1 h				Kd (PH-domain of CNKSR1; [3]): 36 µM; Cmax (Pharmacokinetics (PK); in vivo, printed in the T1/2/AUC column): 2200 nM
CCNC(=O)/C=C/c1c(NS(=O)(=O)c2cccs2)cc2c(c1OC)OCO2 [Compound 105]	6.7 µM	1.6 to 94 µM			10 µM	100 µM		
COc1c(/C=C/CO)c(NS(=O)(=O)c2cccs2)cc2c1OCO2 [Compound 152, N-{6-[(1E)-3-hydroxyprop-1-en-1-yl]-7-methoxy-2H-1,3-benzodioxol-5-yl}thiophene-2-sulfonamide]	20 µM	0.1 to 100 µM	0.015 to 0.26 µM	3.1 h			7000 ng·h/mL	
O=c1ccoc2c3c(cc(NS(=O)(=O)c4cccs4)c12)OCO3 [Compound 104]								IC50 (mut-KRAS cells; average over mut-KRAS lines): 16.6 µM; IC50 (wt-KRAS cells; average over wt-KRAS lines): 100 µM; inhibition at 50 µM (CNK1): 0%
COc1c(/C=C/C(=O)NCc2ccco2)c(NS(=O)(=O)c2cccs2)cc2c1OCO2 [Compound 108]	35 µM	0.2 to 100 µM		1 h	5.2 µM	100 µM	3410 ng·h/mL	
CNC(=O)/C=C/c1c(NS(=O)(=O)c2cccs2)cc2c(c1OC)OCO2 [Compound 106]	16.3 µM	0.8 to 100 µM	0.096 to 75 µM	1.7 h	8.4 µM	68 µM	7000 ng·h/mL	In vitro IC50 against mut-KRas NSCLC 3D ave (mut-KRas NSCLC lines [2]): 8.4 µM
CCOC(=O)/C=C/c1c(NS(=O)(=O)c2cccs2)cc2c(c1OC)OCCO2 [Compound 113]	25 µM	13.7 to 100 µM			55.1 µM	100 µM		
COc1c(/C=C/C(=O)N2CCOCC2)c(NS(=O)(=O)c2cccs2)cc2c1OCO2 [Compound 109]	18.9 µM	0.1 to 100 µM		0.75 h	6.5 µM	100 µM	1200 ng·h/mL	
COc1c(/C=C/C(N)=O)c(NS(=O)(=O)c2cccs2)cc2c1OCO2 [Compound 107]	19.5 µM	1 to 100 µM	0.82 to 75 µM	3.2 h	1.5 µM	100 µM	34500 ng·h/mL	In vitro IC50 against mut-KRas NSCLC 3D ave (mut-KRas NSCLC lines [2]): 1.5 µM
COc1c(/C=C/C(=O)N2CCN(C)CC2)c(NS(=O)(=O)c2cccs2)cc2c1OCO2 [Compound 111]	19.2 µM	0.6 to 100 µM	0.12 to 13.2 µM	1 h	4.1 µM	33.7 µM	30000 ng·h/mL	In vitro IC50 against mut-KRas NSCLC 3D ave (mut-KRas NSCLC lines [2]): 4.1 µM
COc1c(/C=C/CO)c(NS(=O)(=O)c2cccs2)cc2c1OCCO2 [Compound 115]	11.2 µM	1.6 to 100 µM			39.1 µM	100 µM		
CCOC(=O)/C=C/c1cc(NS(=O)(=O)c2cccs2)c2c(c1OC)OCO2 [Compound 86, (E)-ethyl 3-(4-methoxy-7-(thiophene-2-sulfonamido)benzo[d][1,3]dioxol-5-yl)acrylate]								Kd (AKT1 PH-domain): > 500 µM
COc1c(/C=C2\SC(=S)NC2=O)c(NS(=O)(=O)c2cccs2)cc2c1OCO2 [Compound 103]	25 µM	5.1 to 60 µM						IC50 (mut-KRAS cells; average over mut-KRAS lines): 14.7 µM; IC50 (wt-KRAS cells; average over wt-KRAS lines): 95 µM
COc1c(/C=C/C(=O)NCC(C)O)c(NS(=O)(=O)c2cccs2)cc2c1OCO2 (centres unmarked) [Compound 112]	65 µM	19 to 100 µM			25 µM	100 µM		
CCOC(=O)/C=C/c1cc(NS(=O)(=O)c2cccs2)c2c(c1OC)OCCO2 [Compound 116]								IC50 (mut-KRAS cells; average over mut-KRAS lines): 100 µM
CCOC(=O)CCc1cc(NS(=O)(=O)c2cccs2)c2c(c1OC)OCO2 [Compound 85, ethyl 3-(4-methoxy-7-(thiophene-2-sulfonamido)benzo[d][1,3]dioxol-5-yl)propanoate]								Kd (PH-domain of CNKSR1; SPR, ND = no binding determined, read-out: CNK KD): > 500 µM; Kd (AKT1 PH-domain): > 500 µM
COc1c(/C=C/C(=O)O)cc(NS(=O)(=O)c2cccs2)c2c1OCO2 [Compound 84, (E)-3-(4-methoxy-7-(thiophene-2-sulfonamido)benzo[d][1,3]dioxol-5-yl)acrylic acid]								AKT KD (AKT1 PH-domain): No binding
COc1c(/C=C/C(=O)NC2CC2)c(NS(=O)(=O)c2cccs2)cc2c1OCO2 [Compound 110]	15.7 µM	4.3 to 100 µM	0.23 to 75 µM					In vitro IC50 against mut-KRas NSCLC 3D ave (mut-KRas NSCLC lines [2]): 1.2 µM; IC50 (mut-KRAS cells; average over mut-KRAS lines): 1.2 µM; Kd (PH-domain of CNKSR1; [3]): < 50 µM; IC50 (wt-KRAS cells; average over wt-KRAS lines): 35.7 µM; inhibition at 50 µM (CNK1): 0%
COc1c(/C=C/C(=O)O)c(NS(=O)(=O)c2cccs2)cc2c1OCCO2 [Compound 114]	57 µM	12.1 to 100 µM			85 µM	100 µM		

From patent publication US10227356B2, “Compounds, compositions and methods for inhibiting CNKSR1” (Phusis Therapeutics, Inc., priority 2015, dated 2019)
